For series [1], the target named is T1, L. salivarius alanine racemase (ALR) (Ligilactobacillus salivarius, UniProt Q1WV14, A131K).
T1 construct: full-length ORF in pET-28a (NdeI/XhoI, own stop codon), N-terminal His tag, tag kept; E. coli BL21-CodonPlus(DE3)-RIPL
In words: UPLC activity assay. The format is biochemical. The settings on record: 20 mM L-alanine; 0.05 mM PLP; pH 7.0 (MES), 30 °C.

The target in series [2] is T2, L. salivarius alanine racemase (ALR) (Ligilactobacillus salivarius, UniProt Q1WV14).
T2 construct: full-length ORF in pET-28a (NdeI/XhoI, own stop codon), N-terminal His tag, tag kept; E. coli BL21-CodonPlus(DE3)-RIPL
T2 sequence (Q1WV14 1-371): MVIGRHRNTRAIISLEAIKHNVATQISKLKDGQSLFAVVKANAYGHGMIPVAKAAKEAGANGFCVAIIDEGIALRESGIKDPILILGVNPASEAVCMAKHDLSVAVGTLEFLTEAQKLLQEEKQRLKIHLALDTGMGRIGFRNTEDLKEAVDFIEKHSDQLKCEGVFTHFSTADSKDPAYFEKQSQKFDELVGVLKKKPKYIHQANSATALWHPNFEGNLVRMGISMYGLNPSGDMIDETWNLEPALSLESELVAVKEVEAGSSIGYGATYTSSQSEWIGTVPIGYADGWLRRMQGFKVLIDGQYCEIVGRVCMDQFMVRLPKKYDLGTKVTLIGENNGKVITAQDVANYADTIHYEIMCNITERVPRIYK
Nature of the series: UPLC activity assay. As to conditions: 20 mM L-alanine; 0.05 mM PLP; pH 7.0 (MES), 30 °C; activator. The format is biochemical.

Series [3] addresses T2, L. salivarius alanine racemase (ALR). Nature of the series: UPLC activity assay. The format is biochemical. The settings on record: 20 mM L-alanine; 0.05 mM PLP; pH 7.0 (MES), 30 °C.
Substrate in the series “purified protein”: C[C@H](N)C(=O)O
In words: purified protein. As to conditions: no acetate, 0.05 mM PLP, pH 7.0 (MES), 30 °C.

Turning to `O=C(O)CC(=O)C(=O)O` [oxaloacetate], the “relative activity at 1 mM (inhibition)” value in series [1] was “succinate, pyruvate, 2-oxoglutarate, oxaloacetate and aspartate also more strongly inhibited ALR^A131K than ALR”. Take `CCCC(=O)O` [butyrate]: in series [1], the “relative activity at 1 mM (inhibition)” value is “both propionate and butyrate strongly inhibited ALR^A131K”. In addition, the “relative activity at 1 mM (activation)” value in series [2] was “they strongly activated L. salivarius ALR”. Take `CC(=O)C(=O)O` [pyruvate]: the “relative activity at 1 mM (inhibition)” value in series [1] is “succinate, pyruvate, 2-oxoglutarate, oxaloacetate and aspartate also more strongly inhibited ALR^A131K than ALR”. `CC(O)C(=O)O` (racemic) [D, L-lactate]: the “relative activity at 1 mM (inhibition)” value in series [1] was “ALR and ALR^A131K were both inhibited by D, L-lactate”; in series [3], “ALR and ALR^A131K were both inhibited by D, L-lactate”. Regarding `CCC(=O)O` [propionate], the “relative activity at 1 mM (inhibition)” value in series [1] is “both propionate and butyrate strongly inhibited ALR^A131K”. The “relative activity at 1 mM (activation)” value in series [2] is “they strongly activated L. salivarius ALR”.

B1: L. salivarius alanine racemase (ALR) (Ligilactobacillus salivarius UCC118) (protein)
chain: MVIGRHRNTRAIISLEAIKHNVATQISKLKDGQSLFAVVKANAYGHGMIPVAKAAKEAGANGFCVAIIDEGIALRESGIKDPILILGVNPASEAVCMAKHDLSVAVGTLEFLTEAQKLLQEEKQRLKIHLALDTGMGRIGFRNTEDLKEAVDFIEKHSDQLKCEGVFTHFSTADSKDPAYFEKQSQKFDELVGVLKKKPKYIHQANSATALWHPNFEGNLVRMGISMYGLNPSGDMIDETWNLEPALSLESELVAVKEVEAGSSIGYGATYTSSQSEWIGTVPIGYADGWLRRMQGFKVLIDGQYCEIVGRVCMDQFMVRLPKKYDLGTKVTLIGENNGKVITAQDVANYADTIHYEIMCNITERVPRIYK
Take B1: the Km (in general, the substrate concentration at which the rate is half of its maximum) in “purified protein” is 11.5 mM.

B2: L. salivarius alanine racemase (ALR) (Ligilactobacillus salivarius UCC118; A131K) (protein)
chain: MVIGRHRNTRAIISLEAIKHNVATQISKLKDGQSLFAVVKANAYGHGMIPVAKAAKEAGANGFCVAIIDEGIALRESGIKDPILILGVNPASEAVCMAKHDLSVAVGTLEFLTEAQKLLQEEKQRLKIHLKLDTGMGRIGFRNTEDLKEAVDFIEKHSDQLKCEGVFTHFSTADSKDPAYFEKQSQKFDELVGVLKKKPKYIHQANSATALWHPNFEGNLVRMGISMYGLNPSGDMIDETWNLEPALSLESELVAVKEVEAGSSIGYGATYTSSQSEWIGTVPIGYADGWLRRMQGFKVLIDGQYCEIVGRVCMDQFMVRLPKKYDLGTKVTLIGENNGKVITAQDVANYADTIHYEIMCNITERVPRIYK
Turning to B2, in “purified protein”, the Km stood at 9.20 mM.

The record behind these values is publication PMC4628008, “Characterization of Lactobacillus salivarius alanine racemase: short-chain carboxylate-activation and the role of A131” (SpringerPlus, 2015).
